{"source": "ChEMBL document CHEMBL1914284", "about": "“Pyrazinamide, but not pyrazinoic acid, is a competitive inhibitor of NADPH binding to Mycobacterium tuberculosis fatty acid synthase I” (Bioorg Med Chem Lett, 2011)", "key": {"[1]": {"tested_on": "Mycobacterium tuberculosis", "assay": "Binding affinity to Mycobacterium tuberculosis fatty acid synthase 1 at 350 uM by STD NMR spectrophotometric assay"}, "[2]": {"tested_on": "Mycobacterium tuberculosis", "assay": "Binding affinity to Mycobacterium tuberculosis fatty acid synthase 1 at 500 uM by STD NMR spectrophotometric assay"}, "[3]": {"tested_on": "Mycobacterium tuberculosis", "assay": "Binding affinity to Mycobacterium tuberculosis fatty acid synthase 1 at 8 mM by STD NMR spectrophotometric assay"}, "[4]": {"assay": "Competitive inhibition of Mycobacterium tuberculosis fatty acid synthase 1 assessed as inhibition of NADPH oxidation by STD NMR spectrophotometric analysis"}, "[5]": {"assay": "Binding affinity to Mycobacterium tuberculosis fatty acid synthase 1 by STD NMR spectrophotometric analysis in presence of increasing concentration of NADPH"}}, "note": "Activity calls are given as the source filed them. No cut-off for these calls is given here.", "data": [{"smiles": "C/C=C/C/C=C/CCC(=O)[C@H]1O[C@H]1C(N)=O", "values": [{"measurement": "Activity", "setting": "[1]", "result": "Active"}]}, {"smiles": "CC[C@@H](CO)NCCN[C@@H](CC)CO", "values": [{"measurement": "Activity", "setting": "[2]", "result": "inactive"}]}, {"smiles": "O=C(O)c1cnccn1", "values": [{"measurement": "Activity", "setting": "[3]", "result": "Active"}]}, {"smiles": "NC(=O)c1cnccn1", "note": "[PYRAZINAMIDE]", "values": [{"measurement": "Ki", "setting": "[4]", "result": 41, "unit": "µM"}, {"measurement": "Kd", "setting": "[5]", "result": 70, "unit": "µM"}, {"measurement": "Activity", "setting": "[3]", "result": "Active"}]}]}
